# Experimental data as given in patent US20260137698A1, “CYCLIN-DEPENDENT KINASE 7 INHIBITORS” (JOINT STOCK COMPANY «BIOCAD», priority 2022, published 2026).
# How the values were obtained:
# CDK7/Cyclin H/MNAT1 = CDK7/Cyclin H/MNAT1 (Homo sapiens, UniProt P50613); test: Inhibition of CDK7/Cyclin H/MNAT1 kinase activity (ADP-Glo); assay type: biochemical; conditions: mean value from several measurements; read-out: IC50 CDK7/Cyclin H/MNAT
# Experimental: (§1) Measurements were carried out in a 5 μl reaction volume using a 384-well plate (Corning Inc., order no. 4513). The analyzed substances were titrated from 50 μM in increments of 4 at 11 concentration points in a normal strength kinase buffer A (Thermo Fisher Scientific Inc, cat. no. PV3189) supplemented with DTT (Sigma, orde. no. 646563-10X.5ML) and prepared with water (Panreac, order no. 701074). Kinase was diluted in an analogous buffer, mixed with test compounds in plate wells and preincubated for 10 minutes at 25° C. Following incubation, a mixture of reaction substrate (CDKtide (SignalChem, order no. C06-58) or Histone H1 (SignalChem, order no. H10-54N) or PDKtide (SignalChem, order no. P10-58) and ATP (SignalChem, order no. V915B) prepared on a normal strength kinase buffer A was added. 1% solution of dimethyl sulfoxide (DMSO) (Sigma-Aldrich, order no. D2438) in the reaction volume was used as a negative control. The final concentrations of all reaction components are shown in Table 5. The plate was centrifuged at 400 rcf (Eppendorf, 5804 R) for 1 minute and incubated for 40-60 minutes at 25° C. The amount of ATP consumed in the kinase reaction was then measured using the ADP-Glo™ detection system. Luminescence signal was measured using Spark 20M tablet multifunction reader (Tecan Group Ltd, Switzerland). IC50 value was calculated using Magellan 7.2 (Tecan Group Ltd, Switzerland) by approximating experimental points by four-parameter model with the optimization by Levenberg-Marquardt:
# (§2) [formula] • where A is the upper asymptote; D is the lower asymptote; C is IC50, half-maximal inhibitory concentration of kinase, nM; B is the curvature (slope).
# CDK2/Cyclin A = CDK2/Cyclin A (Homo sapiens, UniProt P24941); test: Inhibition of CDK2/Cyclin A kinase activity (ADP-Glo); assay type: biochemical; conditions: mean value from several measurements; read-out: IC50 CDK2/Cyclin A
# Experimental: as §1, §2
# CDK9/Cyclin K = CDK9/Cyclin K (Homo sapiens, UniProt P50750); test: Inhibition of CDK9/Cyclin K kinase activity (ADP-Glo); assay type: biochemical; conditions: mean value from several measurements; read-out: IC50 CDK9/Cyclin K
# Experimental: as §1, §2
# [1] = system: MDA-MB-468 (triple negative breast cancer); test: Antiproliferative assay on MDA-MB-468 cells (AlamarBlue, 96 h); assay type: cell-based; conditions: Homo sapiens, mean value from several measurements
# Experimental: The antiproliferative activity of CDK7 inhibitors according to the present invention was evaluated in a cell test using continuous cell cultures: MDA-MB-468 (triple negative breast cancer, ATCC® HTB-132™) and NCl-H82 (small cell lung cancer, ATCC® HTB-175™) using a viable AlamarBlue dye (Thermo Fisher Scientific Inc, order no. DAL1100). The cells were grown in DMEM (PanEco, order no. C330π) and RPMI-1640 (PanEco, order no. C330π), respectively. The basal growth medium was enriched with L-glutamine at a concentration of 2 mM (PanEco, order no. Φ032) and 10% fetal bovine serum (Gibco, order no. 16140-071). The night before measurement, MDA-MB-468 adherent cells were detached from plastic with a solution of trypsin-EDTA (PanEco, order no. Π039π), the solution was then inactivated by a DMEM complete medium, centrifuged at 1000 RPM (Eppendorf, 5804 R), a suspension of cells was prepared in a DMEM complete medium, introduced into 96-well culture plates (Corning Inc, order no. 3599) at 8×10^3 cells in 100 μl of medium per well. The next day, test compounds were dissolved in DMSO and diluted with a DMEM complete medium to a final concentration ranging from 50 μM to 10 pM. Diluted compounds in a volume of 50 μl were introduced into the plate wells with cells in triplicates (the final concentration of DMSO was no more than 1%) and incubated at 37° C. in an incubator with 5% CO2 for 96 hours. NCl-H82 suspension cell line was prepared on the day of the analysis. 10×10^3 cells in 100 μl of an RPMI-1640 complete medium were added to each well of a 96-well plate. The procedure for sample dilution is as described above. Cells with test compounds were incubated at 37° C. in an incubator with 5% CO2 for 120 hours. Following incubation, […] of AlamarBlue reagent (Thermo Fisher Scientific Inc., order no. DAL1100) was added to the wells, the contents of the plates were stirred in an orbital shaker (Biosan, Latvia), then further incubated for 5.5-6 hours at 37° C. in an incubator with 5% CO2. The number of viable cells was detected using the Infinite M200Pro microplate spectrophotometer (Tecan Group Ltd, Switzerland) by way of measuring a fluorescent signal at an excitation wavelength (λEx) of 540 nm and an emission wavelength (λEm) of 590 nm.
# IC50 value was calculated using the Magellan software (Tecan Group Ltd, Switzerland) by approximating experimental points by four-parameter model with the optimization by Levenberg-Marquardt: […]
# [2] = General cytotoxicity on primary differentiated HepaRG cells (72 h); assay type: cell-based; conditions: human, general toxicity, mean value from several measurements
# Description: General cytotoxicity of CDK7 inhibitors according to the present invention was investigated using primary differentiated HepaRG cells (Biopredic Int, order no. HPR101). A week before the measurement, the cells were thawed and maintained in Basal hepatic cell medium (Biopredic Int, order no. MIL700079) supplemented with HepaRG maintenance/metabolism medium supplement with antibiotics (Biopredic Int, order no. ADD620C). The medium in vials with cells was changed every 2-3 days. The night before the test, the cells were plated in wells of 96-well plates (Corning Inc., order no. 3599) at 25×10^3 cells in 100 μl of medium per well. The next day, test compounds were introduced into plate wells with cells, untitrated at a concentration ranging from 200 μM to 0.2 nM, and incubated for 72 hours. Cell viability was assessed as described above.
# Sequence of CDK9/Cyclin K (P50750 whole entry): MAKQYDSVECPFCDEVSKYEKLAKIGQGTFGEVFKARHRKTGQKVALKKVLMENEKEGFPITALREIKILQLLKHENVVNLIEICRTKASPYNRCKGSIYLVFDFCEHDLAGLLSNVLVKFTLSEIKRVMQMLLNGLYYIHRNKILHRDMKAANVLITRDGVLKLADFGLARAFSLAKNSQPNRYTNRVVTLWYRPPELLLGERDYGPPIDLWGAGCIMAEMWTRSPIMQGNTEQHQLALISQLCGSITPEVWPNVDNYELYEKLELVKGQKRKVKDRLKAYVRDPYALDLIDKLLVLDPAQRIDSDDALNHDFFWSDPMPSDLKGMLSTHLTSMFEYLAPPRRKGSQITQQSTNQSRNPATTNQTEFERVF
# Sequence of CDK9/Cyclin K (O75909 whole entry partner): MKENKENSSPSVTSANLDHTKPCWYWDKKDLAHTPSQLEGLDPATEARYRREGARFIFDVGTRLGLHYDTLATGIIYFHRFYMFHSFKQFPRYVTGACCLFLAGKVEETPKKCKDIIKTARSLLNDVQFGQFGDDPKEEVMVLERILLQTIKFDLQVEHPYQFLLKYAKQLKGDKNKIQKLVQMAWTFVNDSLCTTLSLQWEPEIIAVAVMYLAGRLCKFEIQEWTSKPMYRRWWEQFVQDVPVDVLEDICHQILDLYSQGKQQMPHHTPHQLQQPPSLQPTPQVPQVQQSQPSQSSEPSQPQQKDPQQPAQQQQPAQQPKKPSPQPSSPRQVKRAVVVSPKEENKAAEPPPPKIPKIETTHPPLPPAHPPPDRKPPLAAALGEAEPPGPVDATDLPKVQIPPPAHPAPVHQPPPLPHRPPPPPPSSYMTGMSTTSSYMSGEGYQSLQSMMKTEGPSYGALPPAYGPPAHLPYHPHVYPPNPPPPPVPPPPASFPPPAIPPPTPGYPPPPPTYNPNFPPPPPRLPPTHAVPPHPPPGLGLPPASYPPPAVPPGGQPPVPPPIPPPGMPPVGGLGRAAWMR
# Sequence of CDK7/Cyclin H/MNAT1 (P50613 whole entry): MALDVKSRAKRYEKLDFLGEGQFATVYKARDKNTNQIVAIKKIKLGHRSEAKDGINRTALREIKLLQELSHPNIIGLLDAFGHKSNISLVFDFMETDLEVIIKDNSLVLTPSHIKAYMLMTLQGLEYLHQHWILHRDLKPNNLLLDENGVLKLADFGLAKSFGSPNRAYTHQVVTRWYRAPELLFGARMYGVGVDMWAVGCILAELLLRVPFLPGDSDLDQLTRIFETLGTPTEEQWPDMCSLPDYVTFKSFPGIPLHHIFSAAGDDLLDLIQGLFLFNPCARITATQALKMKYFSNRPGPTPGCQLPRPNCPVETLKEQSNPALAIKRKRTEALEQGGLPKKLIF
# Sequence of CDK7/Cyclin H/MNAT1 (P51946 whole entry partner): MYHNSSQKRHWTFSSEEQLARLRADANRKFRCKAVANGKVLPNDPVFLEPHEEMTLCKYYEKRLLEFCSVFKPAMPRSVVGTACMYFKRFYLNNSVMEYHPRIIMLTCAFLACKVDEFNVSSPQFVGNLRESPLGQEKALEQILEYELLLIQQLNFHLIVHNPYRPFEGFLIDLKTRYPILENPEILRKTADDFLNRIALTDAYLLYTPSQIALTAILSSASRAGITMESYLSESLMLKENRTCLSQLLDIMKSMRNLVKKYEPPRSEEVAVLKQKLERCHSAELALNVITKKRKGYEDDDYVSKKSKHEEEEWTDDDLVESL
# Sequence of CDK7/Cyclin H/MNAT1 (P51948 whole entry partner): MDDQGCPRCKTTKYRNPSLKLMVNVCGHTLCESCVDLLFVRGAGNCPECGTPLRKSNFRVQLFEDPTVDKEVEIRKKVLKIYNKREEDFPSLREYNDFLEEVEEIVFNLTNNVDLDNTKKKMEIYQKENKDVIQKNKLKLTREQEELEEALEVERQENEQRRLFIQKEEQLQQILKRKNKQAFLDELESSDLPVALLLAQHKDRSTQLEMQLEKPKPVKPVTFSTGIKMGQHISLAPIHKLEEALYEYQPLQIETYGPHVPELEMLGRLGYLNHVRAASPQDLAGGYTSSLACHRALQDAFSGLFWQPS
IC50 (CDK7/Cyclin H/MNAT1) [nM],IC50 (CDK2/Cyclin A) [nM],IC50 (CDK9/Cyclin K) [nM],IC50 [1] [nM],Structure (SMILES),CC50 at 72 h [2] [nM]
< 5,> 200,5 to 50,100 to 1000,"CN(C(=O)c1cc(-c2nc(N[C@H]3CCCNC3)ncc2C(F)(F)F)c[nH]1)C1CC1 [CDK7_1001, N-cyclopropyl-N-methyl-4-(2-{[(3S)-piperidin-3-yl]amino}-5-(trifluoromethyl)pyrimidin-4-yl)-1H-pyrrole-2-carboxamide]",500 to 2000
5 to 50,> 200,5 to 50,100 to 1000,"NC(=O)c1cc(-c2nc(N[C@H]3CCCNC3)ncc2C(F)(F)F)c[nH]1 [CDK7_537, 4-(2-{[(3S)-piperidin-3-yl]amino}-5-(trifluoromethyl)pyrimidin-4-yl)-1H-pyrrole-2-carboxamide]",100 to 500
5 to 50,> 200,–,100 to 1000,"CC(=O)Nc1ccccc1Nc1nc(N[C@H]2CCCNC2)ncc1C(F)(F)F [CDK7_898, N-{2-[(2-{[(3S)-piperidin-3-yl]amino}-5-(trifluoromethyl)pyrimidin-4-yl)amino]phenyl} acetamide]",> 2000
5 to 50,> 200,> 200,–,CN1CCC[C@H](Nc2ncc(C(F)(F)F)c(-c3c[nH]c(C(=O)N(C)C)c3)n2)C1 [CDK7_1019],> 2000
–,–,–,> 1000,"FC(F)(F)c1cnc(N[C@H]2CCCNC2)nc1Oc1cccc2c1NCCC2 [CDK7_829, N-[(3S)-piperidin-3-yl]-4-(1,2,3,4-tetrahydroquin-olin-8-yloxy)-5-(trifluoromethyl) pyrimidin-2-amine]",> 2000
–,–,–,> 1000,"FC(F)(F)c1cnc(N[C@H]2CCCNC2)nc1Oc1cccc2cccnc12 [CDK7_830, N-[(3S)-piperidin-3-yl]-4-(quinolin-8-yloxy)-5-(trifluoromethyl) pyrimidin-2-amine]",> 2000
–,–,–,–,"O=C1CN(c2nc(N[C@H]3CCCNC3)ncc2C(F)(F)F)c2ccccc2N1 [CDK7_900, 4-(2-{[(3S)-piperidin-3-yl]amino}-5-(trifluoromethyl)pyrimidin-4-yl)-1,2,3,4-tetrahydroquin-oxazolin-2-one]",> 2000
5 to 50,> 200,–,> 1000,"FC(F)(F)c1cnc(N[C@H]2CCCNC2)nc1-n1ccc2ccccc21 [CDK7_809, 4-(1H-indol-1-yl)-N-[(3S)-piperidin-3-yl]-5-(trifluoromethyl)py-rimidin-2-amine]",> 2000
5 to 50,> 200,–,> 1000,"CP(C)(=O)c1cccc(Nc2nc(N[C@H]3CCCNC3)ncc2C(F)(F)F)c1 [CDK7_888, N4-[3-(dimethylphos-phoryl)phenyl]-N2-[(3S)-piperidin-3-yl]-5-(trifluoromethyl) pyrimidine-2,4-diamine]",> 2000
5 to 50,> 200,> 200,–,"Cn1c(-c2cc(-c3nc(N[C@H]4CCCNC4)ncc3C(F)(F)F)c[nH]2)nc2ccccc21 [CDK7_1124, 4-[5-(1-methyl-1H-1,3-benzodiazol-2-yl)-1H-pyrrol-3-yl]-N-[(3S)-piperidin-3-yl]-5-(trifluoromethyl)py-rimidin-2-amine]",> 2000
50 to 200,> 200,–,> 1000,"Nc1ccccc1Nc1nc(N[C@H]2CCCNC2)ncc1C(F)(F)F [CDK7_550, N4-(2-aminophenyl)-N2-[(3S)-piperidin-3-yl]-5-(trifluoromethyl) pyrimidine-2,4-diamine]",> 2000
–,> 200,–,–,"CP(C)(=O)c1ccccc1Oc1nc(N[C@H]2CCCNC2)ncc1C(F)(F)F [CDK7_897, 4-[2-(dimethylphos-phoryl)phenoxy]-N-[(3S)-piperidin-3-yl]-5-(trifluoromethyl) pyrimidin-2-amine]",> 2000
5 to 50,–,–,–,"O=c1[nH]cc(-c2nc(N[C@H]3CCCNC3)ncc2C(F)(F)F)c2ccccc12 [CDK7_921, 4-(2-{[(3S)-piperidin-3-yl]amino}-5-(trifluoromethyl)pyrimidin-4-yl)-1,2-dihydroisoquin-olin-1-one]",–
50 to 200,> 200,–,> 1000,"FC(F)(F)c1cnc(N[C@H]2CCCNC2)nc1Cc1ccccc1 [CDK7_766, 4-benzyl-N-[(3S)-piperidin-3-yl]-5-(trifluoromethyl) pyrimidin-2-amine]",> 2000
5 to 50,> 200,–,100 to 1000,"NS(=O)(=O)c1cccc(Nc2nc(N[C@H]3CCCNC3)ncc2C(F)(F)F)c1 [CDK7_891, 3-[(2-{[(3S)-piperidin-3-yl]amino}-5-(trifluoromethyl)pyrimidin-4-yl)amino] benzene-1-sulfonamide]",–
> 200,–,–,–,"CN(C)C(=O)c1c[nH]cc1-c1nc(N[C@H]2CCCNC2)ncc1C(F)(F)F [CDK7_991, N,N-dimethyl-4-(2-{[(3S)-piperidin-3-yl]amino}-5-(trifluoromethyl)py-rimidin-4-yl)-1H-pyrrole-3-carboxamide]",–
5 to 50,> 200,> 200,–,"CN1CCc2c(-c3nc(N[C@H]4CCCNC4)ncc3C(F)(F)F)c[nH]c2C1=O [CDK7_843, 6-methyl-3-(2-{[(3S)-piperidin-3-yl]amino}-5-(trifluoromethyl)pyrimidin-4-yl)-1H,4H,5H,6H, 7H-pyrrolo[2,3-c]pyridin-7-one]",–
5 to 50,> 200,–,> 1000,"FC(F)(F)c1cnc(N[C@H]2CCCNC2)nc1-n1cnc2ccccc21 [CDK7_810, 4-(1H-1,3-benzodiazol-1-yl)-N-[(3S)-piperidin-3-yl]-5-(trifluoromethyl)py-rimidin-2-amine]",> 2000
5 to 50,> 200,–,> 1000,"FC(F)(F)c1cnc(N[C@H]2CCCNC2)nc1Oc1ccccc1 [CDK7_754, 4-phenoxy-N-[(3S)-piperidin-3-yl]-5-(trifluoromethyl) pyrimidin-2-amine]",> 2000
